From patent US20220257596A1, “METHODS FOR TREATING MEIBOMIAN GLAND DYSFUNCTION WITH LIVER X RECEPTOR AGONISTS” (Novartis AG, priority 2019, published 2022)

What was measured:
[1] = system: SCD1 protein production in SZ95-SCD1-HiBit cells; test: Measurement of SCD1 expression in SZ95-SCD1-HiBit cells (HiBiT assay); type: cell-based; conditions: Homo sapiens
Method: SZ95-SCD1-HiBit cells were seeded in 384-well cell culture white plates at a density of 3000 cells/30 ul. Water is added to edge wells to avoid evaporation. Cells were incubated in a humidified incubator with 5% CO2 at 37° C. overnight. Tested compounds were diluted at a ratio of 1:3 using Agilent BRAVO Automated Liquid Handling Platform and added to cells at final concentrations starting from 18 μM. Compound H was used as a reference compound in each plate. Cells in the assay plate were incubated in a humidified incubator with 5% CO2 at 37° C. for 48h.
The assay plates were removed from the incubator and allowed to equilibrate to room temperature. Nano-Glo® HiBiT Detection Reagent (Promega; a mixture of Nano-Glo HiBiT Detection Buffer, Nano-Glo HiBiT Detection Substrate, and LgBiT protein) was added into assay plates, at a volume equal to cell culture medium in each well. Plates were placed on an orbital shaker at a speed of 300-600 rpm for 10 min at room temperature, and read on an EnVision Plate Reader using luminescence detection with a 1 second read time.
The assay measures the increase in SCD1 protein production in vitro. Amax refers to the percent […] of the tested compound compared to the reference compound.

[2] = system: SZ95 (immortalized human sebaceous gland cells) cells; test: Sentinel lipid assay (desaturation index in SZ95 sebocytes); type: cell-based
Method: SZ95 (immortalized human sebaceous gland cells) cells were seeded in Greiner bio-one 96-well polypropylene plates that were pre-treated with 50 μg/ml Human Plasma Fibronectin (Thermo Fisher Scientific) at a density of 10^4 cells/135 μl. Cells were incubated in a humidified incubator with 5% CO2 at 37° C. overnight. Test compounds were diluted at a ratio of 1:3 and added to cells at final concentrations starting from 10 μM. Compound H was used as a positive control reference compound in each plate. Cells in the assay plate were incubated in a humidified incubator with 5% CO2 at 37° C. for 72h.
Culture medium was removed from the cells and cells in culture plates were washed with ice cold phosphate buffered saline three times. Plates were heat sealed and stored in a −80° C. freezer prior to Sentinel lipid assay.
Sentinel lipid assay: The sentinel lipid assay was used quantify the change in the global desaturation index in SZ95 sebocytes upon administration of LXR agonist compounds. The assay measures a smaller subset of lipid analytes in […] (termed “sentinel lipids”) which would model the global changes the population of both saturated and desaturated lipids in the cells. In order to define this smaller subset of lipids, a complete lipid profile was recorded on dose response curves (eight levels from 4 nM to 10 uM) of Compounds A-N. An elastic net regression model was applied separately to both the saturated and desaturated lipids to determine the minimum combination of coefficients and analytes which could be used to adequately model the total population of lipids. The elastic net model was able to reduce the behavior of 425 lipids to 11 lipids and the correlation between the desaturation indices observed using the complete set of lipids with from the 11 sentinel lipids was 0.96.
A medium throughput assay was created using this reduced set of sentinel lipids. A single batch is defined as triplicate examples of three unique plates (i.e., a single batch of cells is used to create nine plates for LC-MSMS analysis). Lipids were extracted from the cells using a 1:1 mixture of methylene chloride/methanol containing 10 nM of deuterated standards of triglycerides, which are used as internal standards for quantitating the lipid abundance. The lipids were separated prior to mass spectrometric analysis using a five minute HPLC gradient. The abundance of the sentinel lipids and the internal standards are measured using multiple reaction monitor mode (MRM) on a triple quadrupole mass spectrometer. The data was transformed from total ion current to nmoles/10^6 cells, which are multiplied by the coefficients from the elastic net model to determine the effective desaturated and saturated content, and therein the desaturation index of the dosed cells. In order to compare compounds from multiple batches with one another, the measure raw desaturation index was normalized by dividing it by the desaturation index of the DMSO dosed cells, and all data was assessed as the fraction by which the compound increases the desaturation index above 1. The Amax value refers to the percent […] of the tested compound compared to the reference compound.

[3] = Eyelid pharmacokinetics: compound concentration in rabbit meibomian gland; type: in vivo
Method: A formulation of 1% Compound G as a suspension in a suitable vehicle was administered to rabbits as follows. Animals were sedated and the eyelashes and hair on both eyes on both lids trimmed as short as possible. Thirty microliters of the 1% Compound G was drawn up into a pipette and carefully pipetted around the entire eyelid of the animal a few millimeters back from the edge of the lid so as to prevent the material from leaking onto the eye itself. Following application, a cotton swab or eye spear was used to gently try and massage the material into the skin. At the appropriate time points, the animals were euthanized and meibomian glands removed and the concentration of the compound in meibomian glands was measured. The experiment was conducted in triplicate and the results below illustrate mean concentration in nM.

CCOC(=O)Cn1nc(C(F)(F)F)cc1-c1ccc(-c2cccc(S(C)(=O)=O)c2)cc1 [Compound G, ethyl 2-(5-(3′-(methylsulfonyl)-[1,1′-biphenyl]-4-yl)-3-(trifluoromethyl)-1H-pyrazol-1-yl)acetate]
EC50 ([1]; SZ95-SCD1-HiBit cells, 48h incubation, top concentration 18 μM): 111 nM
Emax ([1]; percent compared to the reference compound (Compound H), 48h, read-out: HiBit Amax): 70.7%
EC50 ([2]; SZ95 cells, 72h incubation, top concentration 10 μM, desaturation index, read-out: SLA EC50): 243 nM
Emax ([2]; percent compared to the reference compound (Compound H), 72h, read-out: SLA Amax): 98.8%
Uptake into the meibomian gland ([3]; 1% suspension on eyelid, in words): sustained for at least six hours
concentration at 0.5 h ([3]; meibomian gland, topical, 0.5 h, 30 microliters of 1% suspension applied to eyelid, triplicate): 2630 nM
concentration at 3 h ([3]; meibomian gland, topical, 3 h, 30 microliters of 1% suspension applied to eyelid, triplicate): 3780 nM
concentration at 6 h ([3]; meibomian gland, topical, 6 h, 30 microliters of 1% suspension applied to eyelid, triplicate): 1050 nM
